The record followed here is patent publication US11414416B1, “Compounds and uses thereof” (Foghorn Therapeutics Inc., priority 2019, dated 2022).

In the first assay the target is Nanoluciferase-BRD9 fusion protein (Homo sapiens (Human), UniProt Q9H8M2). Kind of assay: SYO1 BRD9 NanoLuc degradation assay. The following applies: Table 5B; SYO-1 cells expressing 3×FLAG-NLuc-BRD9, 6 hours; read-out: SYO1 BRD9-NanoLuc degradation IC50. Format: cell-based. Summed up: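 Degradation was read as loss of nanoluciferase signal (Nano-Glo) after 6 h compound exposure in a stable SYO-1 line carrying 3×FLAG-NLuc-BRD9 (8000 cells/well). Normalised between DMSO (high) and a 1 μM known BRD9 degrader (low).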
Sequence of Nanoluciferase-BRD9 fusion protein (Q9H8M2 whole entry, the tested form may be a part): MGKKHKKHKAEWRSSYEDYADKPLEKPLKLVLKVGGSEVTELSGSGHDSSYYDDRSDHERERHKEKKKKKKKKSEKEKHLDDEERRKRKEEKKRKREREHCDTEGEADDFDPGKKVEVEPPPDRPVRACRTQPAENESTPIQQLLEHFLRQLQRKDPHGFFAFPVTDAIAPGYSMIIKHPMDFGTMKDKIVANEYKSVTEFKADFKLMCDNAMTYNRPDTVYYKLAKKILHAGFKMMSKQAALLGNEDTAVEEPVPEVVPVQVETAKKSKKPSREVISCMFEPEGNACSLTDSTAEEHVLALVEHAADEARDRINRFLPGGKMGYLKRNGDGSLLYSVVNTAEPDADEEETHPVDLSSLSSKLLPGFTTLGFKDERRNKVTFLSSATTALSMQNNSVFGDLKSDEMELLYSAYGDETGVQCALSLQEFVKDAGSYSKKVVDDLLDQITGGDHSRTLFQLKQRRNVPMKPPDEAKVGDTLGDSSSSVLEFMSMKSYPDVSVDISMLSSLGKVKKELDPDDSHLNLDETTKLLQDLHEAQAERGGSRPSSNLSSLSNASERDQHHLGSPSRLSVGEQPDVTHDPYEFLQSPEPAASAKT
Take `COc1cc(-c2cn(C)c(=O)c3cnccc23)cc(OC)c1CN(C)CCOCCOCCOCC(=O)N[C@@H](C(=O)N1C[C@@H](O)C[C@@H]1C(=O)NCc1ccc(-c2scnc2C)cc1)C(C)(C)C` [DD1]: the DC50 was greater than 1000 nM. Take `COc1cc(-c2cn(C)c(=O)c3cnccc23)cc(OC)c1CN(C)CCN(C)CCNC(=O)COc1ccc2c(c1)C(=O)N(C1CCC(=O)NC1=O)C2=O` (stereo not drawn) [DD2]: the DC50 is 100 to 1000 nM. The same measure, in the same setting: the figure for `COc1cc(-c2cn(C)c(=O)c3cnccc23)cc(OC)c1CN(C)CCOCCOCCNc1cccc2nc(C)n(C3CCC(=O)NC3=O)c(=O)c12` (stereo not drawn) [DD3] is greater than 1000 nM; for `COc1cc(-c2cn(C)c(=O)c3cnccc23)cc(OC)c1CN(C)CCCCCCCCNc1cccc2c1CN(C1CCC(=O)NC1=O)C2=O` (stereo not drawn) [DD4] it is less than 10 nM; for `COc1cc(-c2cn(C)c(=O)c3cnccc23)cc(OC)c1CN(C)CCCCCCCCNc1cccc2nc(C)n(C3CCC(=O)NC3=O)c(=O)c12` (stereo not drawn) [DD5] it is 10 to 100 nM. Consider `COc1cc(-c2cn(C)c(=O)c3cnccc23)cc(OC)c1CN(C)CC(=O)NCCN1Cc2cc3c(cc2C1)C(=O)N(C1CCC(=O)NC1=O)C3=O` (stereo not drawn) [DD6], for which the DC50 was in the range of 10 to 100 nM. For the compound `COc1cc(-c2cn(C)c(=O)c3cnccc23)cc(OC)c1CN(C)CC(=O)NCCCCOc1ccc(-c2ccc3c(c2)C(=O)C(C2CCC(=O)NC2=O)C3=O)cc1` (stereo not drawn) [DD7], the DC50 was less than 10 nM. Take `COc1cc(-c2cn(C)c(=O)c3cnccc23)cc(OC)c1CN(C)CC(=O)NCCCCCOc1ccc(-c2ccc3c(c2)C(=O)N(C2CCC(=O)NC2=O)C3=O)cc1` (stereo not drawn) [DD8]: the DC50 was less than 10 nM. Regarding `COc1cc(-c2cc(C)c(=O)n(C)c2)cc(OC)c1CN1Cc2cc3c(cc2C1)C(=O)N(C1CCC(=O)NC1=O)C3=O` (stereo not drawn) [DD9], the DC50 is less than 10 nM. As to `COc1cc(-c2cc(C)c(F)c3ccccc23)cc(OC)c1CN1CCC(CN2CCC3(CC2)CC(Oc2ccc4c(c2)C(=O)N(C2CCC(=O)NC2=O)C4=O)C3)CC1` (stereo not drawn) [DD10], the DC50 was in the range of 100 to 1000 nM.

Staying with this assay, now noted: Table 5C; SYO-1 cells expressing 3×FLAG-NLuc-BRD9, 6 hours.
For the compound `COc1cc(-c2cc(C)c(=O)n(C)c2)cc(OC)c1CN1CC(C)(C#Cc2ccc3c(c2)C(=O)N(C2CCC(=O)NC2=O)C3)C1` (stereo not drawn) [Compound D450], the IC50 was less than 10 nM. Still for that read-out and setting: the figure for `COc1cc(-c2cc(C)c(=O)n(C)c2)cc(OC)c1CN1CC(C#Cc2ccc3c(c2)C(=O)N(C2CCC(=O)NC2=O)C3)C1C` (stereo not drawn) [Compound D453] is less than 10 nM.

In turn, `C/C=C/Cn1cc(-c2ccc(CN3CCN(S(=O)(=O)c4ccc5c(c4)C(=O)N(C4CCC(=O)NC4=O)C5)CC3)c(Cl)c2)n2cncc2c1=O` (stereo not drawn) [Compound D464] returned an IC50 greater than 1000 nM.

Still in this assay, the particulars now being: Table 5C; SYO-1 cells expressing 3×FLAG-NLuc-BRD9, 6 hours; read-out: SYO1 BRD9-NanoLuc degradation IC50.
Regarding `COc1cc(-c2cn(C)c(=O)c3[nH]cnc23)cc(OC)c1CN1CCC2(CC1)CN(c1ccc3c(c1)C(=O)N(C1CCC(=O)NC1=O)C3)C2` (stereo not drawn) [Compound D434], the DC50 was less than 10 nM.

For `COc1cc(-c2ccn3c(=O)n(C)ccc23)cc(OC)c1CN1CCC2(CC1)CN(c1ccc3c(c1)C(=O)N(C1CCC(=O)NC1=O)C3)C2` (stereo not drawn) [Compound D435], the DC50 was greater than 1000 nM. The same measure, in the same setting: the same measure for `COc1cc(-c2cn(C)c(=O)cc2C)cc(OC)c1CN1CCN(c2ccc3c(c2)C(=O)N(C2CCC(=O)NC2=O)C3=O)CC1` (stereo not drawn) [Compound D436]: less than 10 nM. `COc1cc(-c2c(C)n(C)c(=O)c3[nH]c(C)cc23)cc(OC)c1CN1CCC2(CC1)CN(c1ccc3c(c1)C(=O)N(C1CCC(=O)NC1=O)C3)C2` (stereo not drawn) [Compound D437]: the DC50 is greater than 1000 nM.

Regarding `COc1cc(-c2cc(C)c(=O)n(C)c2)cc(OC)c1CN1CC(C#Cc2ccc3c(c2)C(=O)N(C2CCC(=O)NC2=O)C3)C1` (stereo not drawn) [Compound D438], the DC50 was less than 10 nM. With `COc1cc(-c2cc(C)c(=O)n(C)c2)cc(OC)c1CN1CC(C#Cc2ccc3c(c2)CN(C2CCC(=O)NC2=O)C3=O)C1` (stereo not drawn) [Compound D440], the DC50 was less than 10 nM. `COc1cc(-c2cc(C(F)F)c(=O)n(C)c2)cc(OC)c1CN1CC(C#Cc2ccc3c(c2)CN(C2CCC(=O)NC2=O)C3=O)C1` (stereo not drawn) [Compound D441]: the DC50 was less than 10 nM.

Turning to `COc1cc(-c2cc(C)c(=O)n(C)c2)cc(OC)c1CN1CCC(C#Cc2ccc3c(c2)C(=O)N(C2CCC(=O)NC2=O)C3)C1` (stereo not drawn) [Compound D442], the DC50 was less than 10 nM. On to `COc1cc(-c2cc(C)c(=O)n(C)c2)cc(OC)c1CN1CCC(C#Cc2ccc3c(c2)C(=O)N(C2CCC(=O)NC2=O)C3)CC1` (stereo not drawn) [Compound D443], for which the DC50 is less than 10 nM. Still for that read-out and setting: the figure for `COc1cc(-c2cc(C(F)F)c(=O)n(C)c2)cc(OC)c1CN1CCC(C#Cc2ccc3c(c2)C(=O)N(C2CCC(=O)NC2=O)C3)CC1` (stereo not drawn) [Compound D444] is less than 10 nM. On to `COc1cc(-c2c(C)n(C)c(=O)c3[nH]cc(C)c23)cc(OC)c1CN1CCC2(CC1)CN(c1ccc3c(c1)C(=O)N(C1CCC(=O)NC1=O)C3=O)C2` (stereo not drawn) [Compound D445], for which the DC50 was greater than 1000 nM.

As for `COc1cc(-c2c(C)n(C)c(=O)c3[nH]c(C)cc23)cc(OC)c1CN1CCC2(CC1)CN(c1ccc3c(c1)C(=O)N(C1CCC(=O)NC1=O)C3=O)C2` (stereo not drawn) [Compound D446], the DC50 was greater than 1000 nM. Still for that read-out and setting: the same measure for `COc1cc(-c2cn(C)c(=O)c3nccn23)cc(OC)c1CN1CCC2(CC1)CN(c1ccc3c(c1)C(=O)N(C1CCC(=O)NC1=O)C3)C2` (stereo not drawn) [Compound D447]: 100 to 1000 nM; for `COc1cc(-c2cc(C)c(=O)n(C)c2)cc(OC)c1CN1CC(CCc2ccc3c(c2)C(=O)N(C2CCC(=O)NC2=O)C3)C1` (stereo not drawn) [Compound D448]: less than 10 nM; for `COc1cc(-c2cc(C)c(=O)n(C)c2)cc(OC)c1CN1CC(Cc2ccc3c(c2)C(=O)N(C2CCC(=O)NC2=O)C3)C1` (stereo not drawn) [Compound D449]: 10 to 100 nM. As for `COc1cc(-c2cc(C(F)F)c(=O)n(C)c2)cc(OC)c1-c1ccc2c(c1)C(=O)N(C1CCC(=O)NC1=O)C2` (stereo not drawn) [Compound D451], the DC50 lay in the range of 10 to 100 nM. On the same count and under the same terms, the figure for `COc1cc(-c2cc(C)c(=O)n(C)c2)cc(OC)c1CN1CCN(c2ccc3c(c2)C(=O)N(C2CCC(=O)NC2=O)C3)CC1` (stereo not drawn) [Compound D452] is less than 10 nM; for `C/C=C/Cn1cc(-c2cc(OC)c(CN3CCC4(CC3)CN(c3ccc5c(c3)C(=O)N(C3CCC(=O)NC3=O)C5)C4)c(OC)c2)n2cncc2c1=O` (stereo not drawn) [Compound D454] it is less than 10 nM. On to `COc1cc(-c2cc(C(F)F)c(=O)n(C)c2)cc(OC)c1C1CN(c2ccc3c(c2)C(=O)N(C2CCC(=O)NC2=O)C3)C1` (stereo not drawn) [Compound D455], for which the DC50 is less than 10 nM. As to `COc1cc(-c2cn(C)c(=O)c3ccnn23)cc(OC)c1CN1CCC2(CC1)CN(c1ccc3c(c1)C(=O)N(C1CCC(=O)NC1=O)C3)C2` (stereo not drawn) [Compound D456], the DC50 was less than 10 nM. Regarding `COc1cc(-c2cc(C)c(=O)n(C)c2)cc(OC)c1CN1CC(/C=C/c2ccc3c(c2)C(=O)N(C2CCC(=O)NC2=O)C3)C1` (stereo not drawn) [Compound D457], the DC50 was less than 10 nM. `Cc1cc(-c2ccc(N3CCN(c4ccc5c(c4)C(=O)N(C4CCC(=O)NC4=O)C5)CC3)cc2)cn(C)c1=O` (stereo not drawn) [Compound D459]: the DC50 is less than 10 nM. Turning to `Cc1cc(-c2ccc(CN3CCN(c4ccc5c(c4)C(=O)N(C4CCC(=O)NC4=O)C5)CC3)cc2)cn(C)c1=O` (stereo not drawn) [Compound D460], the DC50 is less than 10 nM. As to `COc1cc(-c2cn(C)c(=O)c(C)n2)cc(OC)c1CN1CCC2(CC1)CN(c1ccc3c(c1)C(=O)N(C1CCC(=O)NC1=O)C3)C2` (stereo not drawn) [Compound D461], the DC50 lay in the range of 10 to 100 nM. On the same count and under the same terms, the figure for `COc1cc(-c2cn(C)c(=O)c3cn(OC)nc23)cc(OC)c1CN1CCC2(CC1)CN(c1ccc3c(c1)C(=O)N(C1CCC(=O)NC1=O)C3)C2` (stereo not drawn) [Compound D462] is less than 10 nM; for `C/C=C/Cn1cc(-c2ccc(CN3CCC4(CC3)CN(c3ccc5c(c3)C(=O)N(C3CCC(=O)NC3=O)C5)C4)c(Cl)c2)n2cncc2c1=O` (stereo not drawn) [Compound D465] it is less than 10 nM.

As for `C/C=C/Cn1cc(-c2cc(OC)c(CN3CCC4(CC3)CN(c3ccc5c(c3)C(=O)N(C3CCC(=O)NC3=O)C5)C4)c(OC)c2)c2cc(C)[nH]c2c1=O` (stereo not drawn) [Compound D467], the DC50 is greater than 1000 nM. Still for that read-out and setting: the same measure for `C/C=C/Cn1cc(-c2cc(OC)c(CN3CCN(c4ccc5c(c4)C(=O)N(C4CCC(=O)NC4=O)C5)CC3)c(OC)c2)c2cc(C)[nH]c2c1=O` (stereo not drawn) [Compound D468]: greater than 1000 nM.

Regarding `COc1cc(-c2cn(C)c(=O)c3cnccc23)cc(OC)c1CN1CCC2(CC1)CN(c1ccnc(C(=O)NC3CCC(=O)NC3=O)c1)C2` (stereo not drawn) [Compound D471], the DC50 was less than 10 nM.

For `COc1cc(-c2cn(C)c(=O)c3cnccc23)cc(OC)c1CN1CCC2(CC1)CN(c1nccc(C(=O)NC3CCC(=O)NC3=O)n1)C2` (stereo not drawn) [Compound D472], the DC50 was greater than 1000 nM.

Turning to `COc1cc(-c2cn(C)c(=O)c3cnccc23)cc(OC)c1CN1CCC2(CC1)CN(c1cncc(C(=O)NC3CCC(=O)NC3=O)n1)C2` (stereo not drawn) [Compound D473], the DC50 is greater than 1000 nM. The same measure, in the same setting: the same measure for `COc1cc(-c2cn(C)c(=O)c3cnccc23)cc(OC)c1CN1CCC2(CC1)CN(c1ccc3c(c1)C(=O)N(C1CC(=O)NC(=O)C1)C3)C2` [Compound D474]: greater than 1000 nM; for `COc1cc(-c2cc(C)cc3ccccc23)cc(OC)c1CN1CCC(CN2CCC3(CC2)CC(Oc2ccc4c(c2)C(=O)N(C2CCC(=O)NC2=O)C4=O)C3)CC1` (stereo not drawn) [DD11]: greater than 1000 nM.

As to `COc1cccc(OC)c1CN1CCC2(CC1)CN(c1ccc3c(c1)C(=O)N(C1CCC(=O)NC1=O)C3)C2` (stereo not drawn) [DD12], the DC50 was greater than 1000 nM.

Turning to `COc1cc(-c2cccc3c(=O)n(C)ccc23)cc(OC)c1CN1CCC2(CC1)CN(c1ccc3c(c1)C(=O)N(C1CCC(=O)NC1=O)C3)C2` (stereo not drawn) [DD13], the DC50 is 10 to 100 nM.

`COc1cccc(OC)c1CN1CCN(c2ccc3c(c2)C(=O)N(C2CCC(=O)NC2=O)C3)CC1` (stereo not drawn) [DD14]: the DC50 was greater than 1000 nM. Same read-out and setting: the same measure for `COc1cc(-c2nc(N)nc3[nH]cnc23)cc(OC)c1CN1CCC2(CC1)CN(c1ccc3c(c1)C(=O)N(C1CCC(=O)NC1=O)C3)C2` (stereo not drawn) [DD15]: 10 to 100 nM. Same read-out and setting: the figure for `Cn1ccc2oc(C(=O)NC3CCN(c4ccc5c(c4)C(=O)N(C4CCC(=O)NC4=O)C5)CC3)cc2c1=O` (stereo not drawn) [DD16] is 10 to 100 nM.
